Data taken from a melting point compilation (Tetko et al.; mined from patent text by program, amines drawn as free bases though some values may be those of a salt).

Compound	melting point [°C]
COc1c(Cl)cc(OCC=C(Cl)Cl)cc1C=O	78
CCCc1c(OCCCCCNC(=O)NCCCCc2cccnc2)ccc(C(C)=O)c1O	73 to 76
CN1CCN(C2=Nc3ccc(Cl)cc3Cn3cccc32)CC1	186 to 188
C[C@@H](c1ccc(-c2ccn(C3CC3)c(=O)c2)cc1)N1CC[C@](CC(C)(C)O)(c2ccccc2)OC1=O	91 to 94
Cn1c(=O)c(-c2ccccc2Cl)cc2cnc(N[C@H]3CC[C@H](N)CC3)nc21	190 to 191
CN(C)CC1Cc2ccc(NC(=O)c3ccc(-c4ccc(Cl)cc4)cc3)cc2C1 (stereo unspecified)	192 to 194
O=C(N[C@H]1CC[C@H](CCN2CCC(c3cccc4c3CCO4)CC2)CC1)c1ccc(C(F)(F)F)cc1	228
CCCCCCCCNC(=O)c1cnc2cccc(C)n2c1=O	108 to 110
CCOC(=O)C1CCc2[nH]c3ccc(OC(F)(F)F)cc3c2C1 (stereo unspecified)	131 to 132
Cc1c(-c2ccccc2)oc2cc(OCC3CO3)ccc2c1=O (stereo unspecified)	231 to 235
COc1c(Cl)ccc(-c2cc(N)c(Cl)c(C(=O)N3CCCO3)n2)c1F	204 to 207
CCOC(=O)C=Cc1ccc2c(c1)CC(CNC(=O)OC(C)(C)C)CC2 (stereo unspecified)	117 to 119
CC(=O)NC(Cc1c[nH]c2ccccc12)C(=O)C=Cc1cc(C(F)(F)F)cc(C(F)(F)F)c1 (stereo unspecified)	68 to 70
CCOC(=O)Nc1ccc(OC)nc1	76
CCN1c2ncccc2C(=S)N(C)c2cccnc21	157 to 158
CC(=O)N(C)c1cccc(Sc2ccc([N+](=O)[O-])cc2)c1	66 to 68
COc1ccc2oc(-c3nc4c(s3)NCCCC4C(C)=O)cc2c1 (stereo unspecified)	147 to 149
CCOC1(OCC)OC(C)=C(C(=O)OC)[C@@H](NC(C)=O)[C@@H]1C (relative stereo)	87 to 88
COC(=O)C=CC(C)=Cc1cc(N)ccc1Cl	47 to 50
CCCc1c(OCC(O)COc2cccc(NC(=O)C(=O)OCC)c2C#N)ccc(C(C)=O)c1O (stereo unspecified)	172 to 174
O=C(NCCOc1ccc(CC(Oc2cccc(F)c2)C(=O)O)cc1)c1ccc(-c2ccccn2)cc1 (stereo unspecified)	136 to 138
COc1ccc(S(=O)(=O)Nc2ccccc2OC)cc1	85.5 to 87
O=C1NC(=O)C(Sc2ccc(Cl)cc2)S1 (stereo unspecified)	109 to 110
COc1ccc(S(=O)(=O)N(CC(N)=O)c2ccc(Cl)cc2C(O)c2ccccc2Cl)c(OC)c1 (stereo unspecified)	158
COC(=O)C(C)(C)c1ccc(OCCN)cc1	108 to 112
CC(C)C12OC1C1OC13C1(C)CCC4=C(COC4=O)C1CC1OC13C2O (stereo unspecified)	226 to 228

Compound	melting point [°C]
CN1CCN(Cc2cnc(Nc3cc(-c4cccc(-n5ncc6cc(C(C)(C)C)cc(F)c6c5=O)c4CO)nn(C)c3=O)cn2)CC1	215 to 218
COc1cc2ccc(-c3ccc(C(C)C)cc3)cc2oc1=O	127
Cc1nc2cccc(OC3CCCCC3)c2c(N)c1C(=O)O	220 to 222
CC(CO[N+](=O)[O-])NC(=O)[C@@H]1CSC(=O)N1 (stereo partly specified)	112 to 114
CN(C)S(=O)(=O)n1c(C#N)nc2ccccc21	93
CNC(=O)NC1CCC(O)c2ccccc21 (stereo unspecified)	172 to 180
CCOC(=O)c1cc2c(nc1COc1ccc(C(=O)O)cc1)CCCCC2	135 to 136
COC(=O)C(NC(=O)N1C2CCC(C2)N1CC(O)C(Cc1ccccc1)NC(=O)C(NOCc1ccccn1)C(C)C)C(C)C (mixture of isomers)	79 to 84
CCOC(=O)c1cc2c(C)ccc3c2n1CCO3	101 to 102
C=CC(=O)NCc1cc(C)c(OCC2CO2)c(C)c1 (stereo unspecified)	90 to 92
CCCCNC(=O)Oc1cccc(NC(=O)C=C(C)OCC)c1	164
CC(=O)OC1CSC(Oc2cccc3cc(C(C)=O)oc23)C(OC(C)=O)C1OC(C)=O (stereo unspecified)	208 to 209
CN1CC=C(c2cc3cc(Cl)ccc3o2)CC1	108 to 118
CCn1c(=O)c2c(ncn2CCCCC2CO2)n(CC)c1=O (stereo unspecified)	58 to 59
O=C(Cc1ccc(Oc2ccccc2)cc1)NCCC1=CCCCC1	74 to 75
O=[N+]([O-])c1ccc2c(c1)CN(Cc1ccccc1)CC2	85 to 86
CN(CCF)c1nc2cc(NC(=O)c3c(C(=O)N4CCOCC4)cnn3C)ccn2n1	144 to 145
O=c1[nH]nc2c3cc(F)ccc3[nH]c(=O)n12	> 350
O=C1CCCc2c(Cl)cccc2-c2ccccc21	118
C=Cc1ccc(CNc2ccccn2)c(Cl)c1	119 to 121
COC(=O)c1cc(C(=O)c2ncc3ccc(NC(=O)OC(C)(C)C)cn23)ccc1[N+](=O)[O-]	182
COc1ccc(C2=NN(c3ccc(C4=NNC(=O)CC4C)cc3)C(=O)C3CCCCC23)cc1OC1CCCC1 (stereo unspecified)	134 to 141
Cc1cc(-n2cncn2)c2cccc(OCc3c(Cl)ccc(S(=O)(=O)N4CCC[C@H]4C(=O)NCCCN(C)C)c3Cl)c2n1	105
O=c1ccc(-c2c(-c3ccccc3)nn3ccccc23)c[nH]1	222 to 224
CCOC(=O)c1cc(-c2csc(C(=O)OCC)n2)[nH]n1	104 to 106
Cc1ncc(CN2CCN(c3ccccc3C)CC2)c(N)n1	189 to 190

Compound	melting point [°C]
COc1cc2ccc(-c3cc(C(=O)O)cs3)cc2cc1C12CC3CC(CC(C3)C1)C2	314 to 316
CCOCC(=O)SSc1ccc([N+](=O)[O-])cc1C(Cl)(Cl)Cl	89
CNC(=O)OC1CCN(C(=O)Oc2ccc(Oc3ccccc3)cc2)CC1	117 to 119
CCN(c1nc(C)cc(C(=O)c2nccs2)n1)c1ccc(C(C)C)cc1Br	97 to 98.5
CCOC(=O)c1cnc2sc(S(=O)(=O)Cc3ccccc3)nn2c1=O	200 to 203
COc1ccc(C2CCN(c3c(C)c(C)c4c(c3C)C(O)(c3ccsc3)C(C)(C)O4)CC2)cc1OC (stereo unspecified)	125 to 128
COc1ccc(NC(=O)C2CCc3c(OCc4ccccc4)cccc32)c(OC)c1 (stereo unspecified)	130
C#CCN1C(=O)COc2cc(F)c([N+](=O)[O-])cc21	105 to 107
Cc1ccc(Cl)cc1N1CN(Cc2ccccc2)CN(C)C1=S	148 to 149
CC(=O)CC(=O)Nc1ccc(Br)cc1C	109
CCCC12CCC3C4=C(CCC3C1CCC2O)CC(OC)=CC4 (stereo unspecified)	153 to 156
O=[N+]([O-])c1ccccc1-c1ccc(Br)cc1[N+](=O)[O-]	145 to 147
CCOC(=O)c1sc(-c2ccc(Cl)cc2Cl)nc1C	100
COc1cc([N+](=O)[O-])c2nccc(C)c2c1OCCCCCc1ccco1	47 to 49
CC(C)(C)c1ccc(CCCC(O)CC2CCCCC2)cc1NC(=O)CC1c2ccccc2Oc2ccccc21 (stereo unspecified)	157 to 158
CC(=O)N1CCC(NC(=O)Nc2ccccc2CCc2cc(C(C)(C)C)c(O)c(C(C)(C)C)c2)CC1	218 to 221
COC(=O)c1cnc2c3cc(NC(=O)CCC4CCCC4)ccc3ncn2c1=O	244 to 247
CCc1cc(=O)c2c([nH]1)COCC2	216 to 218
CCCC(=O)C1=C(O)CC(c2cc(C(C)C)no2)CC1=O (stereo unspecified)	105 to 107
COc1ccc(COc2ccc(-c3ccc(C#N)c(=O)[nH]3)cc2OC)cc1OC	220 to 221
Cc1nnc(-c2ccc3occ(-c4ccc(S(C)(=O)=O)cc4)c3n2)o1	250 to 251
N#CN=C1SCCN1Cc1c(Cl)ccc(C(=O)O)c1Cl	208
Nc1cccc(-c2cccnc2)n1	108
Brc1c(NC2=NCCN2)ccc2c1NCCN2	218 to 220
CCOc1nc(=O)n(C(=O)NC(=O)CCl)s1	132
O=c1ccccn1[C@@H]1c2cc([N+](=O)[O-])ccc2OC(CF)(CF)[C@H]1O (relative stereo)	226 to 228

Compound	melting point [°C]
Cc1cc(CCC(=O)OCC(CO)(COC(=O)CCc2cc(C)c(O)c(C(C)(C)C)c2)COC(=O)CCc2cc(C)c(O)c(C(C)(C)C)c2)cc(C(C)(C)C)c1O	40 to 50
Cc1ccc(N)c(C(=O)c2ccccc2)c1	64 to 66
COC=C(C(=O)OC)c1ccccc1	37 to 38
C=CCc1cc(N2CCN(c3ccncc3)CC2)ccc1OCCCC(=O)OCC	53 to 55
Cc1noc(C)c1S(=O)(=O)n1c(=O)oc2ccccc21	133 to 135
Cc1nc(NC(=O)CCCc2ccccc2)sc1C(=O)NCc1ccccc1	45 to 46
COC(=O)c1ccc(F)cc1SC(=O)N(C)C	190
CC(C)n1nc(-c2sc(NC(=O)c3ccc(CCl)cc3)nc2-c2ccccc2)ccc1=O	> 250
NC(=O)Cc1c[nH]c2ncccc12	180 to 181
Cc1nnc(CN2C(=O)c3ccccc3C2=O)n1-c1ccc(Cl)cc1C(=O)c1ccccc1	215 to 218
CN1CCN(c2cccc3ccc(NC(=O)Nc4ccccc4)cc23)CC1	213 to 214
COC1=C(Cc2ccc(Cl)cc2)C(=O)CC(C)(C)C1	62 to 63
Cn1nc(C(F)(F)F)cc1-c1ccc(F)cc1F	37 to 38
CCCCC(=O)Nc1ccc(Cl)cc1C(=O)OC	48 to 49
Cc1cccc(C2=C(c3cn(C)c4ccccc34)C(=O)NC2=O)c1	243
Cc1c(NC(=O)c2ccc(-c3ccc(Cl)cc3Cl)cc2F)ccc2cc(CN3CCCC3)cnc12	162 to 163
COC(=O)c1cc(OC)c(CCNC(C)=O)c(OC)c1	233 to 235
CC(=O)c1cc2c(s1)C(=O)c1c(C(C)=O)csc1C2=O	207 to 208
Cc1ccc(S(=O)(=O)n2cc(CO)nc2C)cc1	140 to 143
CCOC(=O)C(=O)Cc1cc(Cl)c(Cl)cc1[N+](=O)[O-]	92 to 94
NNC(=O)NCCS(=O)(=O)O	212 to 215
O=C(O)CSCC(O)CN1CCCCC1 (stereo unspecified)	152
C=CCn1c(Cc2ccccc2)c(CC)c(=O)[nH]c1=O	164 to 165
